Source: patent US20240000811A1, “INOSITOL HEXAKISPHOSPHATE ANALOGUES FOR TREATMENT OF CALCIFICATION ASSOCIATED KIDNEY DISEASES” (INOSITEC AG, priority 2020, published 2024)

Columns and labels:
[1] = In-solution screening: CaP precipitation and aggregation in artificial renal tubular fluid (RTF); details: 9 mM phosphate, 8 mM calcium, 4 h, RT
Description: An artificial renal tubular fluid (RTF) with a final composition of 0.05 mM oxalate, 0.005 mM sulphate, 408 mM sodium, 424 mM chloride, 0.26 mM potassium, 4 mM magnesium and 0.2 mM citrate in double distilled water was prepared according to a literature report (Fasano, J. M. et al., Kidney Int. 59, 169-178. DOI: 10.1046/j.1523-1755.2001.00477.x, 2001). The solution was filtered with a 0.45-μm syringe filter. Twenty mM Bis-Tris buffer was added to the reported protocol to ensure pH stability throughout experiments and pH was set to 7.2. The artificial RTF was stored at room temperature for up to four months. Stock solutions of 0.25 M phosphate and 1 M calcium were prepared in double distilled water and were stored separately at −20° C.
Twenty-x final concentration phosphate, 20× final concentration calcium and 10× final concentration compound dilutions were prepared in RTF. Assay mixture consisting of 80% RTF, 10% compound dilution, 5% phosphate dilution and 5% calcium dilution was prepared in Eppendorf tubes as follows. RTF (320 μL) was mixed with 20 μL phosphate dilution (final concentration of 9 mM), 40 μL compound dilution and 20 μL calcium dilution (final concentration of 8 mM). The assay mixture was vortexed after adding each component and 380 μL of the mixture were immediately added to 8-well glass bottom slides and incubated for 4 hat RT. CaP precipitation was assessed using a Leica DM 6000B microscope (Leica Microsystems, Wetzlar, Germany) in brightfield mode. For quantification 3 wells/condition with 3-4 images/well were imaged with a 40× objective. The total area covered with CaP deposits in percentage of the field of view and the mean size of CaP aggregates were determined.
In a first step, the influence of selected IP6 analogues (FIG. 3) on CaP precipitation and growth was assessed in vitro using artificial renal tubular fluid (RTF) (Table 1). In a previous study, the inventors investigated CaP protein particle formation in serum. However, an important difference to cardiovascular calcification lies in the extremely low protein content of the renal tubular fluid vs. the high abundance of proteins in blood, which can stabilize amorphous particles. Two cut-offs were chosen for assessing efficacy. First, complete inhibition was defined as a >90% reduction of detected CaP precipitates compared to the control sample without compound.

[2] = tested on: RPTEC/TERT 1 human proximal tubule cells; experiment: Imaging assay: CaP adhesion/deposition and cellular changes on RPTEC monolayers treated with 5/7 mM Ca/P; assay type: cell-based
Description: RPTEC/TERT 1 human proximal tubule cells (RPTEC) were cultured in T75 tissue culture flasks using ProxUp basal medium mixed with ProxUp supplements at 37° C. and 5% CO2 according to manufacturer's recommendations. Cells were used up to passage 30 and regularly tested for Mycoplasma infections. For experiments, RPTEC were cultured in 24-well plates at a seeding density of 150′000 cells/cm^2. Cell viability assessment and cell counting before seeding was performed using an automated cell counter (BioRad TC 20, Hercules, CA, USA).
For the comparison of selected IP6 analogues, ProxUp basal medium was prepared with the selected inhibitor and added to each well. Then, CaP precipitation was induced by direct addition of first, phosphate and second, calcium. Final concentrations of 7 mM phosphate and 5 mM calcium were used. Cells were incubated for 24 h at 37° C. and 5% CO2. Spiked medium was removed, and cells were washed twice with PBS before staining.
(§1) For staining, ProxUp basal medium was mixed with calcein (500 nM final concentration), EthD (6 μM final concentration), CellMask stain ([…]) and Hoechst 33342. Staining mixture was added to RPTEC and cells were incubated for 30 min in the dark at 37° C. and 5% CO2. Staining solution was removed, cells were washed with PBS once and ProxUp basal medium was added. Cells were immediately imaged after staining. Images were obtained by epifluorescence microscopy at 37° C., using a Leica CTR6000 microscope. For quantification 3 wells/condition were prepared and 3 images/well were taken. For preliminary adhesion experiments images were taken with a 10× objective, for the imaging assay 20× objective images were taken.
Multichannel images were saved as individual channel images in 8-bit tiff format. For analysis Hoechst channel images were thresholded using the triangle threshold. Touching nuclei of the binary image were further segmented using the watershed algorithm with the distance transform of the binary image as input and local maxima thereof as seeds.
For EthD channel images, high level of background noise was observed, potentially as a result of fluorescence of the CellMask stain bleeding through. […] A fixed minimum threshold was set at 60. Watershed segmentation similar to the Hoechst channel was performed to segment touching objects. For the calcein channel images adaptive thresholding by triangle thresholding achieved good detection of CaP deposits, which was validated by visual comparison to brightfield channel images. For compound experiments, an additional upper threshold was set to the minimum threshold of the pos.ctrl images for the respective experiment. Thereby an overly insensitive threshold in images with a high amount of CaP deposition was circumvented. The sum of foreground pixels of the binary image was used to calculate the total area of CaP deposits. The skimage label algorithm was used to label touching foreground regions.
To segment images to single cells the CellMask channel image was first binarized by adaptive thresholding, using a blocksize of 35, followed by median filtering. Binary erosion was performed to shrink the outlines. A version of watershed algorithm was used to segment the whole image into single cells. To this end, the distance transform of the binary erosion image was used as input image and seeds were set to the local maxima of the Hoechst channel image. While this protocol allowed for an approximation of single cell morphology, further improvements of both analytical and experimental staining procedure would be necessary to achieve more accurate results.
Additionally, texture features of calcein and CellMask channel images were extracted. Grey level co-occurrence matrices were calculated using one set offset of 5 pixel and an angle of 90°. Here, the use of larger offsets could improve the detection of changes in large-scale features, e.g. CaP clustering sites. […]

[3] = tested on: RPTEC/TERT 1 human proximal tubule cells; experiment: CaP-induced CaOx crystallization on RPTEC monolayers; assay type: cell-based; details: 1.2 mM oxalate, 4 h
Description: For the assessment of CaP-induced CaOx crystallization, after 24 h of incubation, Ca/P spiked medium was removed, and cells were washed twice with PBS. Subsequently, medium containing 1.2 mM oxalate and compound was added to each well. After 4 h of incubation at 37° C. and 5% CO2 treatment was removed, and cells washed once with PBS before staining.
as §1

[4] = previous study (Kletzmayr et al. 2020); cited from earlier work
[5] = reported, Schantl et al. 2020; cited from earlier work
[6] = 7 mM phosphate, 5 mM calcium, 24 h

COCCOCCO[C@@H]1C(OP(=O)(O)O)[C@H](OCCOCCOC)[C@@H](OP(=O)(O)O)C(OP(=O)(O)O)[C@H]1OP(=O)(O)O (stereo partly shown) [(OEG2)2-IP4]
effect on CaP precipitation / crystallization (in words) [1]: did not further increase the inhibitory activity
concentration achieving complete inhibition of CaP adhesion [2, 6]: 50 µM
concentration down to which CaP adhesion was drastically reduced [2, 6]: 12.5 µM
single cell area compared to the positive ctrl ([2]; 6-50 μM compound, 5/7 mM Ca/P): dose-dependently reduced
single cell solidity compared to the positive ctrl ([2]; 6-50 μM compound, 5/7 mM Ca/P): increased
total cell count/field of view compared to the positive ctrl ([2]; 6-50 μM compound, 5/7 mM Ca/P): increased
number of dead cells compared to the positive ctrl ([2]; 6-50 μM compound, 5/7 mM Ca/P, EthD staining): dose-dependently reduced
image feature profile vs positive ctrl (+5/7 mM Ca/P) and negative ctrl ([2]; 6-50 μM compound, 24 h): dose-dependent reversal
total CaP area compared to the positive ctrl ([2]; 6 and 13 μM compound, 5/7 mM Ca/P, calcein staining): reduction
calcium oxalate dihydrate (COD) in CaP-induced CaOx crystallization ([3]; 100 μM compound): almost entirely abolished
CaOx crystal form in CaP-induced CaOx crystallization ([3]; after 24 h Ca/P, dose-dependent): revert CaOx crystallization from calcium oxalate monohydrate (COM), the predominant most stable form, to calcium oxalate dihydrate (COD)
efficacy on CaOx crystallization in solution [4]: limited efficacy
pharmacokinetic profile [5]: favorable
